These results are taken from publication PMC9423655, “Huntington’s disease phenotypes are improved via mTORC1 modulation by small molecule therapy” (PLoS ONE, 2022).

One assay concerns mTORC1 pathway in heart. Put plainly: Chronic 6-week treatment: heart immunoblots. The assay is classed as in vivo. The conditions noted are these: N171-82Q mice, 160 mg/kg daily 6 weeks, 1 hour after dosing. The procedure: (§1) Specific regions of the brain and heart were homogenized using a Next Advance Bullet Blender Storm in Lysis Buffer (Cell lysis buffer: 1% Triton X-100, 50 mM HEPES pH 7.4, 100 mM sodium chloride, 2 mM EDTA, 10 mM Beta-glycerophosphate, 10 mM Sodium pyrophosphate, and 1 protease inhibitor) at 4°C. Lysates were cleared by centrifugation at 13,200 rpm at 4°C for 10 minutes. Equal amounts of total protein from each sample were denatured and, resolved by SDS-PAGE. Membranes were imaged using the LI-COR imaging system. Proteins levels are normalized to tubulin, actin or GAPDH levels and further normalized to vehicle treated mice for each tissue.
Fig 5 Oral dosing with NV-5297 over 6 weeks improves cardiac function and activates the mTORC1 pathway. (A) Representative M-mode echocardiograms from transthoracic echocardiography at 6 weeks and 12 weeks of vehicle and NV-5297 treated N171-82Q males. (B) Heart weight corrected for the animal’s standard length (tibia length) at 12 weeks. (C) Left ventricular measurements obtained by transthoracic echocardiography by deducting the end treatment (12 weeks) from the baseline (6 weeks) measurements. Variation in cardiac output [CO], ejection fraction [EF], fractional shortening [FS], stroke volume (SV) and Heart rate [HR]. (D) Representative immunoblots for normalized phosphorylated S6 (^S240/244pS6), S6, phosphorylated Akt (^S437pAkt), Akt, phosphorylated mTOR (^S2448pmTOR), mTOR, phosphorylated 4E-BP1 (^Thr37/46p4E-BP1), 4E-BP1 and Actin in homogenized heart. (E) Quantification of the immunoblots for homogenized heart isolated 1 hour after oral dosing with NV-5297 (160 mg/kg; n = 14) normalized to loading control levels and further normalized to vehicle (Veh) treated mice (n = 15). Data are presented as mean ± SEM. *P ≤ 0.05, **P ≤ 0.01, ***P ≤ 0.001 (unpaired Kruskal-Wallis test with Dunn’s multiple comparison test [B], unpaired one-tailed Student’s t-tests [C, E pmTOR] with a Welch’s correction [pS6/S6, pmTOR/mTOR] or a Mann-Whitney test [pAkt/Akt, p4E-BP1/4E-BP1]).

Assay [1] deals with T1, Sestrin2/GATOR2 interaction (Homo sapiens, UniProt P58004).
T1 construct: endogenous in cells; host or cells: Flag-WDR24 293T (HEK293T) cells
T1 sequence (P58004 1-480): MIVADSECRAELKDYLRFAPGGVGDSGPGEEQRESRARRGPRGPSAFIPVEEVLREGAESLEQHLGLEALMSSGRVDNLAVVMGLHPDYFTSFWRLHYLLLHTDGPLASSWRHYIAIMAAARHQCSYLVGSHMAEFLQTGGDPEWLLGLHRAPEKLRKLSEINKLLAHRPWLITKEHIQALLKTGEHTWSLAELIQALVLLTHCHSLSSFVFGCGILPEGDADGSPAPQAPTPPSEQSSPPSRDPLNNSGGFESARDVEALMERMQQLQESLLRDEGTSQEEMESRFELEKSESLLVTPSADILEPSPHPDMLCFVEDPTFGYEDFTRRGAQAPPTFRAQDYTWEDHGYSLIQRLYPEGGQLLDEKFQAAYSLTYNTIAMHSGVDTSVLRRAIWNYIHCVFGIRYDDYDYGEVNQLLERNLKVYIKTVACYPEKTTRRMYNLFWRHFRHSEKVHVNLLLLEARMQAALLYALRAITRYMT
Put plainly: Intact cells-based Sestrin2/GATOR2 protein-protein interaction assay, Flag-WDR24 293T cells. The class given is cell-based. Conditions: 10 minutes. How it is done:
Flag-WDR24 293T cells were washed and placed in leucine-free DMEM supplemented 10% dFBS for 50 minutes followed by treatment with NV-5297, leucine or vehicle for 10 minutes. Cells were rinsed once with ice-cold PBS and immediately lysed with Triton lysis buffer (1% Triton, 10 mM β-glycerol phosphate, 10 mM pyrophosphate, 40 mM Hepes pH 7.4, 2.5 mM MgCl2 and 1 tablet of EDTA-free protease inhibitor). The cell lysates were cleared by centrifugation at 13,200 rpm at 4°C in a microcentrifuge for 10 minutes. Prior to immunoprecipitations, an aliquot of lysate was taken for SDS-PAGE and immunoblotting for pS6K1, S6K1 and tubulin. For anti-FLAG immunoprecipitations, the FLAG-M2 affinity gel was washed 3 times with Triton lysis buffer, and 30 μl of a 50/50 slurry of the FLAG-M2 affinity gel was then added to approximately 2 mg of clarified cell lysates and incubated with rotation for 3 hours at 4°C. Following immunoprecipitation, the beads were washed one time with Triton wash buffer containing 500 mM NaCl. Immunoprecipitated proteins were denatured, resolved by SDS-PAGE, and analyzed by immunoblotting.
Next, Sestrin2/GATOR2 protein-protein interactions in response to NV-5297 were measured using cell-free assays and in vitro. For this, HEK293T cells stably expressing flag-WDR24, a component of GATOR2 [44], were used. The cell-free assays utilized Sestrin2/GATOR2 complexes immunoprecipitated from amino acid-starved cells with an anti-flag antibody.

For assay [2], the system named is mTORC1 pathway in striatum. Put plainly: Chronic 6-week treatment: striatum immunoblots. The assay is classed as in vivo, N171-82Q mice.
Excerpt: Animals were sacrificed by live decapitation one hour after the last oral dosing. Whole hearts were excised, blot-dried and weighed on an analytical balance. The heart was bisected transversely and the apical halves was preserved for cardiomyocyte and fibrosis staining. Left tibias were isolated and measured with an electronic caliper. The brain left hemisphere was preserved for MSN size measurement. The brain right hemisphere was microdissected and the medial pre-frontal cortex, striatum, cortex, hippocampus and cerebellum were collected.
as §1
Fig 3 Activation of the mTORC1 pathway in the striatum following daily oral dosing of NV-5297. (A) Representative immunoblots of the striatum for normalized phosphorylated S6 [^S240/244pS6], S6, phosphorylated Akt [^S437pAkt], Akt, phosphorylated mTOR [^S2448pmTOR], mTOR, DARPP-32, phosphorylated 4E-BP1 [^Thr37/46p4E-BP1], 4E-BP1 and Actin from homogenized striatum isolated from N171-82Q males after 6 weeks of daily oral dosing of NV-5297 (160 mg/kg) or vehicle [Veh]. (B) Quantification of the immunoblots from homogenized striatum isolated 1 hour after the final oral dosing with NV-5297 (160 mg/kg; n = 14) normalized to loading control levels and further normalized to vehicle treated mice (n = 15). A significant Spearman correlation is present between pS6/S6 and DARPP32 levels. Data are presented as mean ± SEM. *P ≤ 0.05, ***P ≤ 0.001, ****P ≤ 0.0001 (one-tailed unpaired Student’s t-test [pmTOR/mTOR, DARPP-32], with a Welch’s correction [pS6/S6, p4E-BP1/4E-BP1], Mann-Whitney test [pAkt/Akt].

Where [3] appears, read: N171-82Q mice, 160 mg/kg daily 6 weeks.
Where [4] appears, read: N171-82Q mice, 160 mg/kg daily 6 weeks, 1 hour after final dose.

Molecules are shown by their SMILES.

Consider `CC(C)(C[C@H](N)C(=O)O)C(F)(F)F` [NV-5297, (S)-2-amino-5,5,5-trifluoro-4,4-dimethylpentanoic acid], for which, in the assay on mTORC1 pathway in heart, the “heart p4E-BP1 level versus controls” value is on record as “elevated”, the “heart pS6 level versus controls” value is “elevated” and the “heart pmTOR level versus controls” value is “elevated”. Further, the “Sestrin2/GATOR2 interaction (GATOR2-associated Sestrin2)” value in assay [1] (added to cell cultures, leucine-starved flag-WDR24 HEK293T cells) is “disrupted the Sestrin2/GATOR2 interaction in a dose-dependent manner”. Further, the “p70S6K1 (T389 pS6K1) level” value in assay [1] (leucine-starved flag-WDR24 HEK-293T cells, S1C Fig) is listed as “increased p70S6K1 in a dose-dependent manner”. In assay [2] (setting [3]), the “striatal p4E-BP1/4E-BP1” value is “unchanged”, the “striatal pAkt/Akt” value is reported as “unchanged” and the “striatal pmTOR/mTOR” value was “unchanged”. Besides, in assay [2] (setting [4]), the “striatal DARPP-32” value is reported as “significantly elevated” and the “striatal pS6” value is “significantly elevated”. Besides, the “duration of mTORC1 pathway activation” value in assay [2] (NV-5297 daily treatment, response to reviewers) was ~ 3 hours per day.
